Data published in patent publication US7718700B2, “Growth factor-binding compounds and methods of use” (Yale University, priority 2004, dated 2010).
“Also recorded” adds a separate entry of the source.

How the values were obtained:
[1] = target: PDGF (Homo sapiens, UniProt P01127); assay: Tryptophan fluorescence titration of PDGF; assay type: binding; conditions: emission at 334 nm
Procedure: FIGS. 2D and 2E illustrate that GFB-204 binds PDGF and VEGF as indicated by growth factor tryptophan when increased amounts of GFB204 were added to PDGF and VEGF, respectively. The fluorescence was monitored by excitation at 295 nm and 228 nm, respectively, and emission at 334 nm.
Both VEGF and PDGF contain tryptophans that fluoresce at […] when excited at […].

[2] = system: PDGF-stimulated Erk1, Erk2, Akt and STAT3 phosphorylation; assay: PDGF-stimulated phosphorylation of Erk1/2, Akt and STAT3 in NIH 3T3 cells; assay type: cell-based, mouse; conditions: GFB204 10 μM
Procedure: (§1) FIGS. 3A and 3B show the effect of GFB204 on growth factor stimulated Erk1, Erk2, Akt, and STAT3 phosphorylation. GFB204 inhibits VEGF and PDGF stimulation of Flk-1 tyrosine phosphorylation and Erk1/Erk2 phosphorylation (FIG. 3A). NIH 3T3 cells or Flk-1/NIH 3T3 cells were treated with increasing concentrations of GFB204 for 5 minutes prior to stimulation with PDGFBB (10 ng/ml) or VEGF (50 ng/ml), respectively, for 10 minutes. The cells were then lysed and processed for SDS-PAGE Western blotting with an antibody specific for phosphotyrosine-Flk-1 or anti-phosphotyrosine for PDGFR tyrosine phosphorylation or phospho-Erk1/2. GFB204 effects on growth factor-stimulated Erk1, Erk2, Akt and STAT3 phosphorylation (FIG. 3B). NIH 3T3, Flk-1/NIH 3T3, IGF-1R/NIH 3T3 or EGFR/NIH 3T3 cells were treated with GFB204 (10 μM) prior to stimulation with PDGF (NIH 3T3) VEGF (Flk-1/NIH 3T3), EGF (EGFR/NIH 3T3), bFGF (NIH 3T3) or IGF-1 (IGF-1R/NIH 3T3). The cells were then harvested and processed for SDS-PAGE Western blotting with antibodies specific for phospho-Erk1/2, phospho-Akt and phospho-STAT3.
(§2) Growth factor-mediated stimulation of phosphorylation of Erk1/2, Akt and STAT3. […]

[3] = system: adult human brain endothelial cells; assay: VEGF-dependent human brain endothelial cell migration (modified Boyden chamber); assay type: cell-based; conditions: VEGF 20 ng/ml, 18 hours, read-out: IC50 VEGF-induced endothelial cell migration
Procedure: Migration of adult human brain endothelial cells was evaluated using a modified Boyden chamber assay as described in Materials and Methods. Vehicle control (FIG. 5A) or GFB204 (FIG. 5B) was added to 2% FBS-containing medium in the outer chamber, and the number of migrated cells to the VEGF-containing lower chamber was determined after an 18-hour incubation (FIG. 5C).
Human brain endothelial cell migration assay. Migration of adult human brain endothelial cells was evaluated using a modified Boyden chamber assay (BD BioCoat Matrigel Invasion Chamber) (Papadimitriou, E. et al. Biochem Biophys Res Commun, 2001, 282:306-13). The cells were plated at 4×10^4/ml onto an 8 μm pore size membrane coated with a thin layer of Matrigel basement membrane matrix. GFB204 was added to the medium in the outer chamber and the cells were cultured for 18 hours under VEGF-dependent condition in the lower chamber (VEGF 20 ng/ml). Non-invading cells were removed from the upper surface with a cotton swab. Membrane inserts were then fixed with 4% paraformaldehyde and stained with Crystal-Violet dye. The number of cells that migrated to the undersurface of the filters, was quantified by counting the cells migrated in randomly selected microscopic fields (10×). Samples were analyzed for significant differences using a Student's t-test for independent samples.

[4] = system: VEGF-stimulated Erk1, Erk2, Akt and STAT3 phosphorylation; assay: VEGF-stimulated phosphorylation of Erk1/2, Akt and STAT3 in Flk-1/NIH 3T3 cells; assay type: cell-based, mouse; conditions: GFB204 10 μM
Procedure: as §1, §2

Chain of PDGF (P01127 82-190 limits assumed): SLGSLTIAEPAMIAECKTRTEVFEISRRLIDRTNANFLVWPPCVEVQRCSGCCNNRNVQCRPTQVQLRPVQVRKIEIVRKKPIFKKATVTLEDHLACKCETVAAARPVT

SMILES: CCCCOc1c2cc(C(=O)Nc3cc(C(=O)O)cc(C(=O)OCc4ccccc4)c3)cc1Cc1cc(C(=O)Nc3cc(C(=O)O)cc(C(=O)OCc4ccccc4)c3)cc(c1OCCCC)Cc1cc(C(=O)Nc3cc(C(=O)O)cc(C(=O)OCc4ccccc4)c3)cc(c1OCCCC)Cc1cc(C(=O)Nc3cc(C(=O)O)cc(C(=O)OCc4ccccc4)c3)cc(c1OCCCC)C2 [GFB204]
- binding to PDGF by tryptophan fluorescence titration [1]: binds both PDGF and VEGF
- PDGF-stimulation of the phosphorylation of Erk1, Erk2, Akt and STAT3 [2]: blocked; also recorded: inhibited
- IC50 [3]: 600 nM
- VEGF-stimulation of the phosphorylation of Erk1, Erk2, Akt and STAT3 [4]: blocked; also recorded: inhibited
